Laboratory results published in patent publication US10106559B2, “Substituted tetrahydrocarbazole and carbazole carboxamide compounds” (BRISTOL-MYERS SQUIBB COMPANY, priority 2013, dated 2018).

Experiments:
[1] = target: Jak2 tyrosine kinase (Homo sapiens (Human), UniProt O60674); test: Jak2 Tyrosine Kinase Assay; type: biochemical
[2] = test system: CD69 expression on B cells in human whole blood; test: Whole Blood Assay of BCR-Stimulated CD69 Expression on B Cells; type: cell-based; details: B-cell
[3] = selectivity: Jak2 IC50 divided by Btk IC50

Chain of Jak2 tyrosine kinase (O60674 whole entry): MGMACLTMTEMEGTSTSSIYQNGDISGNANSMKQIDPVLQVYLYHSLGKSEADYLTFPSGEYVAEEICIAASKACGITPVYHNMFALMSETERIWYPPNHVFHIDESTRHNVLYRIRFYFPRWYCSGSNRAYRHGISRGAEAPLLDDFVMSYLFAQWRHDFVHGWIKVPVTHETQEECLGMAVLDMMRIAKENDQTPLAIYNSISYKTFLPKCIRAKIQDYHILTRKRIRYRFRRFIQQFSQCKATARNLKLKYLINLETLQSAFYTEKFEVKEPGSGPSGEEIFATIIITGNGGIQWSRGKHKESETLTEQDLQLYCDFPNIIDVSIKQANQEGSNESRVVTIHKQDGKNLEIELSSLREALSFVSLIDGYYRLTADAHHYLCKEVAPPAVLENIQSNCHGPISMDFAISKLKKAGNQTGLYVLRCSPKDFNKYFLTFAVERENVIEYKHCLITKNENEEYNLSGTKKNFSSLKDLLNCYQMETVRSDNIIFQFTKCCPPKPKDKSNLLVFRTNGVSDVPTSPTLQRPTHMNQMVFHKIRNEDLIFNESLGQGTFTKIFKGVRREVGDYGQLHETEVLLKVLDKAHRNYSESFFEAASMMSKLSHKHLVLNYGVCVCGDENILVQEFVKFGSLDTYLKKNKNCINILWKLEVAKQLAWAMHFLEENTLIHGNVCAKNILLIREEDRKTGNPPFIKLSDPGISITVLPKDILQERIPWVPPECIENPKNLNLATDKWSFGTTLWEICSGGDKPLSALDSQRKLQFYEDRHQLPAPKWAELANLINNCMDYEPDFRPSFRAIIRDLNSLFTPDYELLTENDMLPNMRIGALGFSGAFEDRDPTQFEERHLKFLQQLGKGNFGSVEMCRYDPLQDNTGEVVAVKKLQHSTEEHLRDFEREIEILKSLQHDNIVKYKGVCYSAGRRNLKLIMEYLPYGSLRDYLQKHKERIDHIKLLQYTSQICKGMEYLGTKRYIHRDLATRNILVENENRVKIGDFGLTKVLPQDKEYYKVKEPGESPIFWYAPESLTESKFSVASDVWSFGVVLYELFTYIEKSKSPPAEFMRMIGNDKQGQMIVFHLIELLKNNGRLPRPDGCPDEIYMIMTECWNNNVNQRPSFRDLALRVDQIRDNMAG

Compound	Ratio of Jak2/Btk IC50 values [1, 3]	also measured
Cc1c(-c2c(Cl)cc(C(N)=O)c3[nH]c4cc(C(C)(C)O)ccc4c23)cccc1-n1c(=O)cc2c(F)cccn2c1=O [Example 34, 3-Chloro-4-(3-(5-fluoro-1,3-dioxo-1H-pyrido[1,2-c]pyrimidin-2(3H)-yl)-2-methylphenyl)-7-(2-hydroxypropan-2-yl)-9H-carbazole-1-carboxamide]	440	
Cc1c(-c2c(F)cc(C(N)=O)c3[nH]c4c(c23)CC[C@H](C(C)(C)O)C4)cccc1-n1c(=O)c2cccc(F)c2n(C)c1=O (atropisomer, axis not shown) [Example 28, 6-Fluoro-5-(R)-(3-(S)-(8-fluoro-1-methyl-2,4-dioxo-1,2-dihydroquinazolin-3(4H)-yl)-2-methylphenyl)-2-(S)-(2-hydroxypropan-2-yl)-2,3,4,9-tetrahydro-1H-carbazole-8-carboxamide]	59000	
Cc1c(-c2c(Cl)cc(C(N)=O)c3[nH]c4cc(C(C)(C)O)ccc4c23)cccc1-n1c(=O)cc2c(F)cccn2c1=O [Example 35, 3-Chloro-4-(R)-(3-(5-fluoro-1,3-dioxo-1H-pyrido[1,2-c]pyrimidin-2(3H)-yl)-2-methylphenyl)-7-(2-hydroxypropan-2-yl)-9H-carbazole-1-carboxamide]	3200	
Cc1c(-c2c(Cl)cc(C(N)=O)c3[nH]c4cc(C(C)(C)O)ccc4c23)cccc1-n1c(=O)cc2sccn2c1=O [Example 39, 3-Chloro-4-(R)-(3-(5,7-dioxo-5H-thiazolo[3,2-c]pyrimidin-6(7H)-yl)-2-methylphenyl)-7-(2-hydroxypropan-2-yl)-9H-carbazole-1-carboxamide]	1200	
Cc1c(-c2c(Cl)cc(C(N)=O)c3[nH]c4c(c23)CC[C@H](C(C)(C)O)C4)cccc1-n1c(=O)c2cccc(F)c2n(C)c1=O [Example 25, 6-Chloro-5-(3-(8-fluoro-1-methyl-2,4-dioxo-1,2-dihydroquinazolin-3(4H)-yl)-2-methylphenyl)-2-(S)-(2-hydroxypropan-2-yl)-2,3,4,9-tetrahydro-1H-carbazole-8-carboxamide]		IC50 [2]: 200 nM
Cc1c(-c2c(Cl)cc(C(N)=O)c3[nH]c4cc(C(C)(C)O)ccc4c23)cccc1-n1c(=O)c2cc(F)ccc2n(C)c1=O [Example 8, 3-Chloro-4-(R)-(3-(6-fluoro-1-methyl-2,4-dioxo-1,2-dihydroquinazolin-3(4H)-yl)-2-methylphenyl)-7-(2-hydroxypropan-2-yl)-9H-carbazole-1-carboxamide]		IC50 [2]: 75 nM
Cc1c(-c2c(F)cc(C(N)=O)c3[nH]c4c(c23)CC[C@H](C(C)(C)O)C4)cccc1-n1c(=O)cc2c(F)cccn2c1=O (single isomer, unassigned) [Example 69]	11000	
Cc1c(-c2c(Cl)cc(C(N)=O)c3[nH]c4cc(C(C)(C)O)ccc4c23)cccc1-n1c(=O)c2cccc(C)c2n(C)c1=O [Example 4, 3-Chloro-4-(R)-(3-(1,8-dimethyl-2,4-dioxo-1,2-dihydroquinazolin-3(4H)-yl)-2-methylphenyl)-7-(2-hydroxypropan-2-yl)-9H-carbazole-1-carboxamide]		IC50 [2]: 180 nM
Cc1c(-c2c(Cl)cc(C(N)=O)c3[nH]c4cc(C(C)(C)O)ccc4c23)cccc1-n1c(=O)[nH]c2c(F)cc(F)cc2c1=O (racemic) [Example 10, 3-Chloro-4-(RS)-(3-(RS)-(6,8-difluoro-2,4-dioxo-1,2-dihydroquinazolin-3(4H)-yl)-2-methylphenyl)-7-(2-hydroxypropan-2-yl)-9H-carbazole-1-carboxamide]		IC50 [2]: 110 nM
Cc1c(-c2c(Cl)cc(C(N)=O)c3[nH]c4cc(C(C)(C)O)ccc4c23)cccc1-n1c(=O)c2ccc(F)cc2n(C)c1=O [Example 9, 3-Chloro-4-(R)-(3-(7-fluoro-1-methyl-2,4-dioxo-1,2-dihydroquinazolin-3(4H)-yl)-2-methylphenyl)-7-(2-hydroxypropan-2-yl)-9H-carbazole-1-carboxamide]		IC50 [2]: 76 nM
Cc1c(-c2c(C#N)cc(C(N)=O)c3[nH]c4cc(C(C)(C)O)ccc4c23)cccc1-n1c(=O)c2cccc(F)c2n(C)c1=O [Example 15, 3-Cyano-4-(S)-(3-(8-fluoro-1-methyl-2,4-dioxo-1,2-dihydroquinazolin-3(4H)-yl)-2-methylphenyl)-7-(2-hydroxypropan-2-yl)-9H-carbazole-1-carboxamide]	2400	
Cc1c(-c2c(F)cc(C(N)=O)c3[nH]c4cc(C(C)(C)O)ccc4c23)cccc1-n1c(=O)cc2c(F)cccn2c1=O [Example 41, 3-Fluoro-4-(R)-(3-(5-fluoro-1,3-dioxo-1H-pyrido[1,2-c]pyrimidin-2(3H)-yl)-2-methylphenyl)-7-(2-hydroxypropan-2-yl)-9H-carbazole-1-carboxamide]	4000	
Cc1c(-c2c(Cl)cc(C(N)=O)c3[nH]c4cc(C(C)(C)O)ccc4c23)cccc1-n1c(=O)cc2c(F)cccn2c1=O [Example 36, 3-Chloro-4-(R)-(3-(5-fluoro-1,3-dioxo-1H-pyrido[1,2-c]pyrimidin-2(3H)-yl)-2-methylphenyl)-7-(2-hydroxypropan-2-yl)-9H-carbazole-1-carboxamide]	1600	
Cc1nc(C(N)=O)c2[nH]c3cc(C(C)(C)O)ccc3c2c1-c1cccc(-n2cnc3ccccc3c2=O)c1C [Comparative Example 76, 7-(2-Hydroxypropan-2-yl)-3-methyl-4-(2-methyl-3-(4-oxoquinazolin-3(4H)-yl)phenyl)-9H-pyrido[3,4-b]indole-1-carboxamide, reference compound]	29	Ratio of Jak2/Btk IC50 values ([1]; Jak2 IC50 over Btk IC50, larger value = more selective for Btk): 29
COc1ccc2c(=O)n(-c3cccc(-c4c(Cl)cc(C(N)=O)c5[nH]c6cc(C(C)(C)O)ccc6c45)c3C)c(=O)n(C)c2c1 (single isomer, unassigned) [Example 6]	1400	
Cc1c(-c2c(F)cc(C(N)=O)c3[nH]c4cc(C(C)(C)O)ccc4c23)cccc1-n1c(=O)cc2c(F)cccn2c1=O [Example 40, 3-Fluoro-4-(R)-(3-(5-fluoro-1,3-dioxo-1H-pyrido[1,2-c]pyrimidin-2(3H)-yl)-2-methylphenyl)-7-(2-hydroxypropan-2-yl)-9H-carbazole-1-carboxamide]	1800	
Cc1c(-c2c(Cl)cc(C(N)=O)c3[nH]c4cc(C(C)(C)O)ccc4c23)cccc1-n1c(=O)cc2sccn2c1=O [Example 38, 3-Chloro-4-(R)-(3-(5,7-dioxo-5H-thiazolo[3,2-c]pyrimidin-6(7H)-yl)-2-methylphenyl)-7-(2-hydroxypropan-2-yl)-9H-carbazole-1-carboxamide]	880	
COc1ccc2c(=O)n(-c3cccc(-c4c(Cl)cc(C(N)=O)c5[nH]c6cc(C(C)(C)O)ccc6c45)c3C)c(=O)n(C)c2c1 (single isomer, unassigned) [Example 5]	>950	
Cc1c(-c2c(F)cc(C(N)=O)c3[nH]c4cc(C(C)(C)O)ccc4c23)cccc1-n1c(=O)[nH]c2c(F)cc(F)cc2c1=O (single isomer, unassigned) [Example 73]		IC50 [1]: 580 nM
